Measurements published in patent US20240226086A1, “LIQUID PHARMACEUTICAL FORMULATIONS OF QUINOLINES” (TaP Pharmaceuticals, AG, priority 2022, published 2024).
Structures can show the parent of a compound that is named as a salt. Where two headings read alike, the source gives them in different places.

Tests used:
[1] = cited from earlier work
[2] = HCQ sulfate solubility in liquid glycerol formulations, HPLC assay for HCQ; type: physicochemical; settings: dissolution protocol of Example 1
Method: Liquid HCQ formulations. […] Step 1: 63 g of glycerol were weighed and transferred into a 50 ml beaker with magnetic stir bar and heated to 70° C. while stirred. Step 2: 10 g HCQ sulfate were weighed and slowly added to the 70° C. glycerol of Step 1 with continued stirring and with maintenance of 70° C. until a clear liquid solution was formed. Step 3: 10 g HCQ sulfate was weighed and slowly added to resultant clear liquid solution of Step 3 with continued stirring and with maintenance of 70° C. until a clear liquid solution was formed. Step 4: the resultant clear liquid solution of Step 4 was cooled to room temperature.
HPLC steps. Step 1. […] The chromatogram was recorded and used to identify any peak eluting at the retention time of major peaks. […] The chromatogram was recorded and used to identify the HCQ peak and calculate its signal to noise ratio. […] The chromatogram was recorded and used to identify HCQ and HCQ-n-oxide peaks and the resolution between those peaks was calculated. […] The chromatograms were recorded and used to calculate the average and % RSD for the HCQ peak area responses obtained from the six replicate injections of standard solution. The tailing factor was determined. […] The chromatograms were recorded and used to calculate average peak area responses of the HCQ obtained from the two replicate injections of standard check solution. The similarity factor was calculated. […]

- HCQ dissolved in glycerol [2]: 273 mg/mL
Compound: CCN(CCO)CCCC(C)Nc1ccnc2cc(Cl)ccc12 (centres unmarked) [HCQ, 2-[[4-[(7-Chloro-4-quinolyl)amino]pentyl]ethylamino] ethanol sulfate (1:1)]
- Solubility, Inference as USP ([1]; solvent Alcohol): Practically insoluble or slightly soluble
- Solubility, Inference as USP ([1]; solvent Chloroform): Practically insoluble or slightly soluble
- Solubility, Inference as USP ([1]; solvent Dimethylformamide): Sparingly soluble (10-33)
- Solubility, Inference as USP ([1]; solvent Dimethylsulfoxide): Insoluble or sparingly soluble
- Solubility, Inference as USP ([1]; solvent Ethanol): Sparingly soluble or insoluble
- Solubility, Inference as USP ([1]; solvent Ether): Practically insoluble or very slightly soluble
- Solubility, Inference as USP ([1]; solvent Glycerol): Very slightly soluble (0.1-1)
